Test results as given in ChEMBL document CHEMBL3779788, “Facile synthesis of 1,3-thiazolidin-4-ones as antitubercular agents” (Bioorg Med Chem Lett, 2016).
≈ marks a conversion by molar mass, not a printed value.

Tests used:
[1] = system: Mycobacterium bovis BCG str. ATCC 35743; experiment: Antitubercular activity against dormant Mycobacterium bovis BCG ATCC 35743 assessed as growth inhibition at 3 ug/mL by NR assay; assay type: functional
[2] = system: Mycobacterium bovis BCG str. ATCC 35743; experiment: Antitubercular activity against dormant Mycobacterium bovis BCG ATCC 35743 assessed as growth inhibition at 10 ug/mL by NR assay; assay type: functional
[3] = system: Mycobacterium tuberculosis; experiment: Antitubercular activity against dormant Mycobacterium tuberculosis H37Ra assessed as growth inhibition at 30 ug/mL by XTT reduction menadione assay; assay type: functional; settings: read-out: GI
[4] = system: Mycobacterium tuberculosis; experiment: Antitubercular activity against dormant Mycobacterium tuberculosis H37Ra assessed as growth inhibition at 10 ug/mL by XTT reduction menadione assay; assay type: functional; settings: read-out: GI
[5] = system: Mycobacterium tuberculosis; experiment: Antitubercular activity against dormant Mycobacterium tuberculosis H37Ra assessed as growth inhibition at 3 ug/mL by XTT reduction menadione assay; assay type: functional; settings: read-out: GI
[6] = system: Mycobacterium bovis BCG str. ATCC 35743; experiment: Antitubercular activity against dormant Mycobacterium bovis BCG ATCC 35743 assessed as growth inhibition at 30 ug/mL by NR assay; assay type: functional
[7] = (§1) Antitubercular activity against dormant Mycobacterium bovis BCG ATCC 35743 by NR assay; assay type: functional, Mycobacterium bovis BCG str. ATCC 35743
[8] = system: Mycobacterium bovis BCG str. ATCC 35743; experiment: as §1; assay type: functional
[9] = system: Mycobacterium tuberculosis; experiment: Antitubercular activity against dormant Mycobacterium tuberculosis H37Ra by XTT reduction menadione assay; assay type: functional, organism-based
[10] = Cytotoxicity against human MCF7 cells at 30 ug/mL by MTT assay; assay type: cell-based; settings: read-out: INH
[11] = Cytotoxicity against human MCF7 cells at 10 ug/mL by MTT assay; assay type: cell-based; settings: read-out: INH
[12] = Cytotoxicity against human MCF7 cells at 3 ug/mL by MTT assay; assay type: cell-based; settings: read-out: INH
[13] = Cytotoxicity against human A549 cells at 30 ug/mL by MTT assay; assay type: cell-based; settings: read-out: INH
[14] = Cytotoxicity against human A549 cells at 10 ug/mL by MTT assay; assay type: cell-based; settings: read-out: INH
[15] = Cytotoxicity against human A549 cells at 3 ug/mL by MTT assay; assay type: cell-based; settings: read-out: INH
[16] = Cytotoxicity against human HCT116 cells at 30 ug/mL by MTT assay; assay type: cell-based, HCT-116; settings: read-out: INH
[17] = Cytotoxicity against human HCT116 cells at 10 ug/mL by MTT assay; assay type: cell-based, HCT-116; settings: read-out: INH
[18] = Cytotoxicity against human HCT116 cells at 3 ug/mL by MTT assay; assay type: cell-based, HCT-116; settings: read-out: INH
[19] = Cytotoxicity against human HCT116 cells after 48 and 72 hrs by MTT assay; assay type: cell-based, HCT-116; settings: for GI50 at 72 h: HCT116 cells; for GI90: hct-116, 72 h
[20] = (§2) Cytotoxicity against human A549 cells after 48 and 72 hrs by MTT assay; assay type: cell-based; settings: A549 cells
A549 = experiment: as §2; assay type: cell-based; settings: a549, 72 h
[21] = (§3) Cytotoxicity against human MCF7 cells after 48 and 72 hrs by MTT assay; assay type: cell-based; settings: MCF7 cells
MCF7 = experiment: as §3; assay type: cell-based; settings: mcf7, 72 h
Escherichia coli = experiment: Antibacterial activity against Escherichia coli after 18 hrs by broth dilution method; assay type: functional, organism-based
Pseudomonas = experiment: Antibacterial activity against Pseudomonas after 18 hrs by broth dilution method; assay type: functional, organism-based
Staphylococcus aureus = experiment: Antibacterial activity against Staphylococcus aureus after 18 hrs by broth dilution method; assay type: functional, organism-based
Bacillus subtilis = experiment: Antibacterial activity against Bacillus subtilis after 18 hrs by broth dilution method; assay type: functional, organism-based

| SMILES | growth inhibition (GI) [1] [%] | growth inhibition (GI) [2] [%] | inhibition of growth at 30 µg/mL [3] [%] | inhibition of growth at 10 µg/mL [4] [%] | inhibition of growth at 3 µg/mL [5] [%] | growth inhibition (GI) [6] [%] | IC50 [7] [µg/mL] | IC90 [8] [µg/mL] | IC50 [9] [µg/mL] | IC90 [9] [µg/mL] | cytotoxicity at 30 ug/mL [10] [%] | cytotoxicity at 10 ug/mL [11] [%] | cytotoxicity at 3 ug/mL [12] [%] | cytotoxicity at 30 ug/mL [13] [%] | cytotoxicity at 10 ug/mL [14] [%] | cytotoxicity at 3 ug/mL [15] [%] | cytotoxicity at 30 ug/mL [16] [%] | cytotoxicity at 10 ug/mL [17] [%] | cytotoxicity at 3 ug/mL [18] [%] | GI50 at 72 h [19] [µg/mL] | further results |
| --- | --- | --- | --- | --- | --- | --- | --- | --- | --- | --- | --- | --- | --- | --- | --- | --- | --- | --- | --- | --- | --- |
| O=C1CSC(c2ccc(Cl)cc2)N1c1ccccc1 (stereo unspecified) | -0.5 | 15.9 | 82.1 | 76.8 | 34.3 | 45.6 | > 30 | > 30 | 5.6 (≈ 19.3 µM) | > 30 | 40.1 | 20.6 | -1.4 | -20.4 | 0 | -10.3 | 3.9 | 0 | -7.5 | > 100 | GI90 [19]: > 100 µg/mL; GI50 at 72 h [20]: > 100 µg/mL; GI90 (A549): > 100 µg/mL; GI50 at 72 h [21]: > 100 µg/mL; GI90 (MCF7): > 100 µg/mL; IC50 (Escherichia coli): > 30 µg/mL; MIC (Escherichia coli): > 30 µg/mL; IC50 (Pseudomonas): > 30 µg/mL; MIC (Pseudomonas): > 30 µg/mL; IC50 (Staphylococcus aureus): > 30 µg/mL; MIC (Staphylococcus aureus): > 30 µg/mL; IC50 (Bacillus subtilis): > 30 µg/mL; MIC (Bacillus subtilis): > 30 µg/mL |
| O=C1CSC(c2ccccc2)N1c1ccc(Cl)cc1 (stereo unspecified) | 1.3 | -11.3 | 94.3 | 24.2 | -17 | 11.6 | > 30 | > 30 | 17.3 (≈ 59.7 µM) | 28.7 (≈ 99 µM) | 38 | 19.5 | 11.2 | 13.4 | 0 | -12.3 | 32.8 | 30 | 19 | > 100 | GI90 [19]: > 100 µg/mL; GI50 at 72 h [20]: > 100 µg/mL; GI90 (A549): > 100 µg/mL; GI50 at 72 h [21]: > 100 µg/mL; GI90 (MCF7): > 100 µg/mL; IC50 (Escherichia coli): > 30 µg/mL; MIC (Escherichia coli): > 30 µg/mL; IC50 (Pseudomonas): > 30 µg/mL; MIC (Pseudomonas): > 30 µg/mL; IC50 (Staphylococcus aureus): > 30 µg/mL; MIC (Staphylococcus aureus): > 30 µg/mL; IC50 (Bacillus subtilis): > 30 µg/mL; MIC (Bacillus subtilis): > 30 µg/mL |
| COc1ccc(N2C(=O)CSC2c2ccccc2)cc1 (stereo unspecified) | -0.1 | 30.2 | 91.4 | 86 | 65.4 | 71.9 | > 30 | > 30 | 2.2 (≈ 7.71 µM) | 24 (≈ 84.1 µM) | 15.4 | 8.9 | -10 | 4.4 | 0 | -0.1 | 10.2 | 7.2 | -6.1 | > 100 | GI90 [19]: > 100 µg/mL; GI50 at 72 h [20]: > 100 µg/mL; GI90 (A549): > 100 µg/mL; GI50 at 72 h [21]: > 100 µg/mL; GI90 (MCF7): > 100 µg/mL; IC50 (Escherichia coli): > 30 µg/mL; MIC (Escherichia coli): > 30 µg/mL; IC50 (Pseudomonas): > 30 µg/mL; MIC (Pseudomonas): > 30 µg/mL; IC50 (Staphylococcus aureus): > 30 µg/mL; MIC (Staphylococcus aureus): > 30 µg/mL; IC50 (Bacillus subtilis): > 30 µg/mL; MIC (Bacillus subtilis): > 30 µg/mL |
| O=C1CSC(c2ccc([N+](=O)[O-])cc2)N1c1ccccc1 (stereo unspecified) | 17.8 | 12.5 | -8.8 | -30.4 | -17.1 | 14.4 | > 30 | > 30 | > 30 | > 30 | 52.6 | 49.9 | 47 | 8.8 | 6.7 | 0.3 | 29.3 | 9 | -11.5 |  |  |
| O=C1CSC(c2ccc(Cl)cc2)N1c1ccc(F)cc1 (stereo unspecified) | -2.1 | -9.9 | -45.6 | -3.2 | 8.8 | -1 | > 30 | > 30 | > 30 | > 30 | 26.1 | 11.5 | 12.4 | 0 | 0 | 0 | 34.5 | 0.2 | -6.2 |  |  |
| Cc1ccc(N2C(=O)CSC2c2ccccc2)cc1 (stereo unspecified) | 61.6 | 4.5 | -0.7 | -24.3 | -21.6 | 39.7 | > 30 | > 30 | > 30 | > 30 | 29.2 | 8.4 | -40.6 | -15.9 | 0 | 0 | 21.6 | 20.5 | 16.1 |  |  |
| CC(=O)O[C@H]1C(=O)[C@@]2(C)[C@H]([C@H](OC(=O)c3ccccc3)[C@]3(O)C[C@H](OC(=O)[C@H](O)[C@@H](NC(=O)c4ccccc4)c4ccccc4)C(C)=C1C3(C)C)[C@]1(OC(C)=O)CO[C@@H]1C[C@@H]2O [PACLITAXEL] |  |  |  |  |  |  |  |  |  |  |  |  |  |  |  |  |  |  |  | 5.21 (≈ 6.1 µM) | GI90 [19]: 0.026 µg/mL (≈ 0.0304 µM); GI50 at 72 h [20]: 0.039 µg/mL (≈ 0.0457 µM); GI90 (A549): < 0.004 µg/mL; GI50 at 72 h [21]: 0.075 µg/mL (≈ 0.0878 µM); GI90 (MCF7): 0.0039 µg/mL (≈ 0.00457 µM) |
| Cc1ccc(C2SCC(=O)N2c2ccccc2)cc1 (stereo unspecified) | 2 | 0.2 | 17.8 | 31 | 12 | 16.6 | > 30 | > 30 | > 30 | > 30 | 40.7 | 16.9 | 0 | 27.8 | -12.6 | -10.3 | -9.8 | -11.9 | -25.8 |  |  |
